The record followed here is patent publication US10513521B2, “Compositions and methods for inhibiting BMP” (The Brigham and Women's Hospital, Inc., priority 2014, dated 2019).

Molecules are shown by their SMILES.

One assay concerns the target ALK6 (Homo sapiens, UniProt O00238). As to the kind of experiment: TR-FRET enzymatic ALK kinase assay, ALK6. On the technique in general: In TR-FRET formats the signal depends on donor and acceptor labels being close together.
The target in the next assay is T1, ALK5 (Homo sapiens, UniProt P36897).
T1 sequence (P36897 34-503): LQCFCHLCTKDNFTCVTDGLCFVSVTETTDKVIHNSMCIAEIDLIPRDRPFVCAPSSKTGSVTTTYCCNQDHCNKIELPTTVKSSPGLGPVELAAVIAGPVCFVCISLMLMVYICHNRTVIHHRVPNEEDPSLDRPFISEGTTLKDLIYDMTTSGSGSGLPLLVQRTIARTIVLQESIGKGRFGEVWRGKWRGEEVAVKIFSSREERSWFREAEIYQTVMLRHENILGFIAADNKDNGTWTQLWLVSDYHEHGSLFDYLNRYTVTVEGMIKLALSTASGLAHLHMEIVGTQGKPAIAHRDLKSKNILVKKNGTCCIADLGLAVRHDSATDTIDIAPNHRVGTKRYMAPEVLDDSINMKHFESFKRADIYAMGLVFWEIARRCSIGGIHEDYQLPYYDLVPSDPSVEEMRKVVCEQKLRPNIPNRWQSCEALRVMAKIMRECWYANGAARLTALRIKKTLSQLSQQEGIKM
The experiment in a line: TR-FRET enzymatic ALK kinase assay, ALK5.

The next assay concerns the target ALK3 (Homo sapiens, UniProt P36894). As to the kind of experiment: TR-FRET enzymatic ALK kinase assay, ALK3.
The target in a further assay is ALK1 (Homo sapiens, UniProt P37023). The experiment in a line: TR-FRET enzymatic ALK kinase assay, ALK1.
ALK1, sequence (P37023 22-503): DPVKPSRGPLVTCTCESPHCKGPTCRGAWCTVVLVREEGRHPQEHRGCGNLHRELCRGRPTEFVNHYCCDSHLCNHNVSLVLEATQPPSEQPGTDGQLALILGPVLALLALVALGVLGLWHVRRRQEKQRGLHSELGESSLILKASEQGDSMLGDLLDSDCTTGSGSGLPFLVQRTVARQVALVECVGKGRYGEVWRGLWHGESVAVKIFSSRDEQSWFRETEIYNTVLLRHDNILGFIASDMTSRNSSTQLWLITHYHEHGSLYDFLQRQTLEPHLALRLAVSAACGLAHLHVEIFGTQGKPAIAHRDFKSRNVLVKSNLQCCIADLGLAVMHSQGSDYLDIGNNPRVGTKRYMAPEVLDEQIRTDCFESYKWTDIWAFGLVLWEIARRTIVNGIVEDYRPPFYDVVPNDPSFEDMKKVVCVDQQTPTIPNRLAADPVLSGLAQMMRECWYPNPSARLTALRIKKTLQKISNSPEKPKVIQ
The next assay has as its target T2, ALK4 (Homo sapiens, UniProt P36896).
T2 sequence (P36896 24-505): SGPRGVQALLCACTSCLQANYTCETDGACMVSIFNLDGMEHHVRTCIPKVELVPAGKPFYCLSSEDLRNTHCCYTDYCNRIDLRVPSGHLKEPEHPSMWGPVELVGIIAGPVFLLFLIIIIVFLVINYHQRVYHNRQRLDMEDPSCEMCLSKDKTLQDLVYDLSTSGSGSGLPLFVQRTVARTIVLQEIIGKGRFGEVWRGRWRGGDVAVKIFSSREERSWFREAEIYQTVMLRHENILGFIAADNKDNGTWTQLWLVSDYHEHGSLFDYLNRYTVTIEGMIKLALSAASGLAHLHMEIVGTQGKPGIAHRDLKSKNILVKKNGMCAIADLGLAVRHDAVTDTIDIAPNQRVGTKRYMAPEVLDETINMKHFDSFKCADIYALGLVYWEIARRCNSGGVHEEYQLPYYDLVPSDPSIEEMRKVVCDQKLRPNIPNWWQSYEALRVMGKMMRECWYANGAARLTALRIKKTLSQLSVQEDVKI
As to the kind of experiment: TR-FRET enzymatic ALK kinase assay, ALK4.

The target of another assay is T3, ALK2 (Homo sapiens, UniProt Q04771).
T3 sequence (Q04771 21-509): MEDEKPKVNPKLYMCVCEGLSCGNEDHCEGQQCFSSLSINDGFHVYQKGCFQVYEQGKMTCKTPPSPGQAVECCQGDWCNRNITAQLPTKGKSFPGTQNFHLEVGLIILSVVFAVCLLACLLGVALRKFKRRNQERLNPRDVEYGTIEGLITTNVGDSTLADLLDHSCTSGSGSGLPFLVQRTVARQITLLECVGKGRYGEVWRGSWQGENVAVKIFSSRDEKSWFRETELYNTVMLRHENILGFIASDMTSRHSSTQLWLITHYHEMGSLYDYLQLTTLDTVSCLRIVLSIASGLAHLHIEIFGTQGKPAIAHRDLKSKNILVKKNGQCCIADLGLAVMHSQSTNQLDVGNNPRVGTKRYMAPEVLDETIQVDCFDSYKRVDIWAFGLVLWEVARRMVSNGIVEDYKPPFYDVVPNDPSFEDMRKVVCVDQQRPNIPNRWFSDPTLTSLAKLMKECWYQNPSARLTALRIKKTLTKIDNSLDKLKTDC
The experiment in a line: TR-FRET enzymatic ALK kinase assay, ALK2.

ALK6, sequence (O00238 14-502): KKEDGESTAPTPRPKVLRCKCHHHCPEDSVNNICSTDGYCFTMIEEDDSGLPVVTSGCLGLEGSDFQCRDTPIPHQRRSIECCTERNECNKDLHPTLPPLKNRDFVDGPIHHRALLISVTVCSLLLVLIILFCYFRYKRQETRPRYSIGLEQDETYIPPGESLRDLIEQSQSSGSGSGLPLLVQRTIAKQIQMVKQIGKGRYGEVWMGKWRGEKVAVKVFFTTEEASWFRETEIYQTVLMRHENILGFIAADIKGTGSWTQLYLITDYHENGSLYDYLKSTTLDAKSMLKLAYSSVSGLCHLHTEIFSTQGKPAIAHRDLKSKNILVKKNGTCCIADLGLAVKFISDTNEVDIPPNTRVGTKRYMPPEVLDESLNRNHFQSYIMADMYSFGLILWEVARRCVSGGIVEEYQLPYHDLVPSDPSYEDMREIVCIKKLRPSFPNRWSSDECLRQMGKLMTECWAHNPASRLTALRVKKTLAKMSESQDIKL
ALK3, sequence (P36894 24-532): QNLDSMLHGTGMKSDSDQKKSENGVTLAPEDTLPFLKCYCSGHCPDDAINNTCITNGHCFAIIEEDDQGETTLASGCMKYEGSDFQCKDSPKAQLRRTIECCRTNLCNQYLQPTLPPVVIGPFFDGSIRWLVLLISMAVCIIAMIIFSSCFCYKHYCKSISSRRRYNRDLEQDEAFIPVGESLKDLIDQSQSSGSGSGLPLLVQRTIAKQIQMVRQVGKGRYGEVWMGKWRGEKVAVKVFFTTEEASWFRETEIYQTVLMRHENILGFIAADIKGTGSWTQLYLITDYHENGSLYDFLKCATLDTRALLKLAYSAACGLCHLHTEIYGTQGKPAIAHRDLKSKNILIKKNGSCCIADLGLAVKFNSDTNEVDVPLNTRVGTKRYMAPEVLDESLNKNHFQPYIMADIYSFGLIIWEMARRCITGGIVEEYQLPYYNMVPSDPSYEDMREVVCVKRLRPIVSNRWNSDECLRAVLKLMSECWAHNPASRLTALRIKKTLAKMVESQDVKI
Method for ALK1: (§1) Briefly, the ALKs enzymatic assay was initiated by dispense 2.5 μl enzyme in 1× kinase reaction buffer. The assay plate was then added with compounds followed by incubation at room temperature for 10 minutes. Then 2.5 μl/well substrate was added.
Method for ALK2: as §1
Method for ALK3: as §1
Method for ALK4: as §1
Method for ALK5: Six ALK kinase enzyme assays were developed for determination of compound activities on ALK1, ALK2, ALK3, ALK4, ALK5 and ALK6.
as §1
Method for ALK6: as §1

`C[C@@H](O)c1cccc(-c2cnn3cc(-c4ccc(CCN5CCCC(O)C5)cc4)cnc23)c1` (stereo partly drawn) [Compound 157]: the half-maximal inhibitory concentration (IC50) (commonly the concentration at which inhibition is half-maximal) against ALK6 was greater than 10000 nM; at ALK5, greater than 10000 nM; against ALK3 it was 5900 nM; against ALK1, 760 nM; against ALK4, greater than 10000 nM; on ALK2 it was 120 nM.

For the compound `C[C@@H](O)c1cccc(-c2cnn3cc(-c4ccc(CCN5CCOCC5)cc4)cnc23)c1` [Compound 158, (R)-1-(3-(6-(4-(2-morpholinoethyl)phenyl)pyrazolo[1,5-a]pyrimidin-3-yl)phenyl)ethanol], the IC50 is greater than 10000 nM on ALK6; greater than 10000 nM at ALK5; greater than 10000 nM on ALK3; 2500 nM at ALK1; greater than 10000 nM on ALK4; 250 nM against ALK2.

`C[C@@H](O)c1cccc(-c2cnn3cc(-c4ccc(CCN5CCC(O)CC5)cc4)cnc23)c1` [Compound 159, (R)-1-(4-(3-(3-(1-hydroxyethyl)phenyl)pyrazolo[1,5-a]pyrimidin-6-yl)phenethyl)piperidin-4-ol]: the IC50 at ALK6 is greater than 10000 nM; on ALK5, greater than 10000 nM; on ALK3, 6100 nM; on ALK1, 1000 nM; against ALK4 it was greater than 10000 nM; against ALK2, 180 nM.

Turning to `C[C@@H](O)c1cccc(-c2cnn3cc(-c4ccc(OCCN5CCCC5)cc4)cnc23)c1` [Compound 160, (R)-1-(3-(6-(4-(2-(pyrrolidin-1-yl)ethoxy)phenyl)pyrazolo[1,5-a]pyrimidin-3-yl)phenyl)ethanol], the 50% inhibitory concentration (IC50) is greater than 10000 nM against ALK6; greater than 10000 nM on ALK5; 3300 nM against ALK3; 1500 nM against ALK1; 8900 nM against ALK4; 190 nM against ALK2.

In the case of `NC(c1cccc(-c2cnn3cc(-c4ccc(OCCN5CCCC5)cc4)cnc23)c1)C(F)(F)F` (stereo not drawn) [Compound 161], the concentration for half-maximal inhibition (IC50) against ALK6 was greater than 10000 nM; against ALK5, greater than 10000 nM; at ALK3, 9400 nM; against ALK1 it was 1600 nM; on ALK4, greater than 10000 nM; against ALK2 it was 150 nM.

Turning to `NC(c1ccc(-c2cnn3cc(-c4ccc(OCCN5CCCC5)cc4)cnc23)c2ccccc12)C(F)(F)F` (stereo not drawn) [Compound 162, 2,2,2-trifluoro-1-(4-(6-(4-(2-(pyrrolidin-1-yl)ethoxy)phenyl)pyrazolo[1,5-a]pyrimidin-3-yl)naphthalen-1-yl)ethanamine], the half-inhibitory concentration (IC50) was greater than 10000 nM on ALK6; greater than 10000 nM at ALK5; greater than 10000 nM at ALK3; greater than 10000 nM against ALK1; greater than 10000 nM on ALK4; 8100 nM against ALK2.

In the case of `CC(O)c1cccc(-c2cnn3cc(-c4ccc(OC5(CN6CCNCC6)CC5)cc4)cnc23)c1` (stereo not drawn) [Compound 168, 1-(3-(6-(4-(1-(piperazin-1-ylmethyl)cyclopropoxy)phenyl)pyrazolo[1,5-a]pyrimidin-3-yl)phenyl)ethanol], the half-maximal inhibitory concentration (IC50) on ALK6 was greater than 10000 nM; against ALK5 it was greater than 10000 nM; against ALK3, 1700 nM; against ALK1, 610 nM; against ALK4, greater than 10000 nM; on ALK2, 85 nM.

With `CS(=O)(=O)c1cccc(-c2cnn3cc(-c4ccc(OC5(CN6CCNCC6)CC5)cc4)cnc23)c1` [Compound 169, 3-(3-(methylsulfonyl)phenyl)-6-(4-(1-(piperazin-1-ylmethyl)cyclopropoxy)phenyl)pyrazolo[1,5-a]pyrimidine], the IC50 at ALK6 was 5700 nM; against ALK5, greater than 10000 nM; against ALK3 it was 1500 nM; at ALK1, 280 nM; on ALK4, greater than 10000 nM; at ALK2 it was 52 nM.

For `CS(=O)(=O)c1cccc(-c2cnn3cc(-c4ccc(OC5(CN6CCCC6)CC5)cc4)cnc23)c1` [Compound 170, 3-(3-(methylsulfonyl)phenyl)-6-(4-(1-(pyrrolidin-1-ylmethyl)cyclopropoxy)phenyl)pyrazolo[1,5-a]pyrimidine], the IC50 on ALK6 was 9600 nM; against ALK5 it was greater than 10000 nM; against ALK3, 1500 nM; on ALK1, 270 nM; against ALK4, greater than 10000 nM; against ALK2, 33 nM.

`CC(O)c1cccc(-c2cnn3cc(-c4ccc(CCN5CCNCC5)cc4)cnc23)c1` (stereo not drawn) [Compound 171, 1-(3-(6-(4-(2-(piperazin-1-yl)ethyl)phenyl)pyrazolo[1,5-a]pyrimidin-3-yl)phenyl)ethanol]: the IC50 against ALK6 is greater than 10000 nM; against ALK5 it was greater than 10000 nM; on ALK3, 2000 nM; against ALK1 it was 1100 nM; against ALK4, greater than 10000 nM; against ALK2, 170 nM.

As to `CS(=O)(=O)c1cc(-c2cnn3cc(-c4ccc(CCN5CCCCC5)cc4)cnc23)cc(C(F)(F)F)c1` [Compound 172, 3-(3-(methylsulfonyl)-5-(trifluoromethyl)phenyl)-6-(4-(2-(piperidin-1-yl)ethyl)phenyl)pyrazolo[1,5-a]pyrimidine], the IC50 was greater than 10000 nM against ALK6; greater than 10000 nM against ALK5; greater than 10000 nM against ALK3; greater than 10000 nM against ALK1; greater than 10000 nM on ALK4; 1200 nM against ALK2.

In the case of `CC(O)c1cccc(-c2cnn3cc(-c4ccc(OC5(CN6CCC(O)CC6)CC5)cc4)cnc23)c1` (stereo not drawn) [Compound 174], the half-inhibitory concentration (IC50) on ALK6 is greater than 10000 nM; at ALK5 it was greater than 10000 nM; against ALK3, 1600 nM; on ALK1, 790 nM; against ALK4, greater than 10000 nM; on ALK2, 43 nM.

In the case of `C[S+](=O)([O-])c1cccc(-c2cnn3cc(-c4ccc(OC5(CN6CC(F)(F)C6)CC5)cc4)cnc23)c1` [Compound 176, 6-(4-(1-((3,3-difluoroazetidin-1-yl)methyl)cyclopropoxy)phenyl)-3-(3-(methylsulfonyl)phenyl)pyrazolo[1,5-a]pyrimidine], the half-inhibitory concentration (IC50) at ALK6 is greater than 10000 nM; on ALK5 it was greater than 10000 nM; at ALK3, 2400 nM; against ALK1 it was 720 nM; against ALK4, greater than 10000 nM; on ALK2 it was 68 nM.

For the compound `CC(O)c1cccc(-c2cnn3cc(-c4ccc(OC5(CN6CCOCC6)CC5)cc4)cnc23)c1` (stereo not drawn) [Compound 177, 1-(3-(6-(4-(1-(morpholinomethyl)cyclopropoxy)phenyl)pyrazolo[1,5-a]pyrimidin-3-yl)phenyl)ethanol], the concentration for half-maximal inhibition (IC50) against ALK6 was greater than 10000 nM; against ALK5, greater than 10000 nM; against ALK3, 890 nM; on ALK1, 770 nM; against ALK4 it was greater than 10000 nM; against ALK2, 45 nM.

For `C[S+](=O)([O-])c1cccc(-c2cnn3cc(-c4ccc(CCN5CCC6(CC5)CNC6)cc4)cnc23)c1` [Compound 178, 6-(4-(2-(2,7-diazaspiro[3.5]nonan-7-yl)ethyl)phenyl)-3-(3-(methylsulfonyl)phenyl)pyrazolo[1,5-a]pyrimidine], the 50% inhibitory concentration (IC50) was greater than 10000 nM against ALK6; greater than 10000 nM against ALK5; greater than 10000 nM against ALK3; greater than 10000 nM against ALK1; greater than 10000 nM at ALK4; 92 nM against ALK2.
